Consider one molecule from patent US20260216193A1, “TREATMENT OF HAND ECZEMA” (LEO Pharma A/S, priority 2016, published 2026).

“Also recorded” adds a separate entry of the source.

For this data set, the system named is subjects with chronic hand eczema. Nature of the data set: phase 2a clinical trial, twice daily topical ointment 30 mg/g vs ointment vehicle for 8 weeks. In kind it is in vivo, human. As to the method:
The invention provides a clinical trial to compare efficacy of twice daily topical ointment with 30 mg/g of the compound of formula (I), with an ointment vehicle for 8 weeks in the treatment of hand eczema. The compound of formula (I) is formulated in an ointment containing the active compound in 30 mg/g, white soft paraffin, hard paraffin and squalane. Dosis range will be a thin layer covering the affected areas on the hands corresponding to 1.7 mg/cm^2 of the compound of formula (I). The primary efficacy parameter for ‘treatment success’ is Physician's Global Assessment of disease severity (PGA). […] Patient's Global Assessment of disease severity (PaGA) was recorded at the same visits. • 1. […] In overall good health including well controlled diseases (e.g. hypertension, diabetes and thyroid disease) as determined by medical history, physical examination, electrocardiogram (ECG), vital signs (blood pressure, heart rate and body temperature) and clinical laboratory evaluation. […]

As to `C[C@H]1CN(C(=O)CC#N)[C@]12CCN(c1ncnc3[nH]ccc13)C2` [compound of formula (I), 3-[(3S,4R)-3-methyl-6-(7H-pyrrolo[2,3-d]pyrimidin-4-yl)-1,6-diazaspiro[3.4]octan-1-yl]-3-oxopropanenitrile], under “ointment 30 mg/g twice daily topical vs ointment vehicle, up to 8 weeks, prespecified analysis at week 8, subjects with chronic hand eczema”, the ““treatment success” according to Physician's Global Assessment of disease severity (PGA)” value was “resulted in “treatment success”; also recorded: statistically significant (P=0.009) difference in favor”. Also, where the note is “ointment 30 mg/g, twice daily topical, patients with hand eczema”, the safety and tolerability entry is “safe and well tolerated”.
